Where two headings read alike, the source gives them in different places.
Biological target: UreG (Helicobacter pylori, UniProt Q09066)
Assay: biochemical
Assay type: binding, H. pylori

UreG, sequence (Q09066 whole entry): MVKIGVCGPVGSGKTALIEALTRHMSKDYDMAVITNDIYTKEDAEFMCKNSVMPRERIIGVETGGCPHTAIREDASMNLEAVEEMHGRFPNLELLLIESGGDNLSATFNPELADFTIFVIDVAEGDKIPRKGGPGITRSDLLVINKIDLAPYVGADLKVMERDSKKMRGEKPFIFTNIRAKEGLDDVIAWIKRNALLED

`Cc1cccc(N2CCN(C(=O)c3cc(S(=O)(=O)N(C)C)ccc3N3CCCC3)CC2)c1C` [cmpd4] was tested, and the Normalized fluo was 0.61, the Normalized fluo (UreG + compound 50μM, Temperature 30.19) was 4.76 and the Normalized fluo (UreG + compound 50μM, Temperature 30.56) was 4.12. It also gave a Normalized fluo (UreG + compound 50μM, Temperature 30.94) of 3.54, a Normalized fluo (UreG + compound 50μM, Temperature 31.33) of 2.90 and a Normalized fluo (UreG + compound 50μM, Temperature 31.72) of 2.50. For the same compound, the Normalized fluo (UreG + compound 50μM, Temperature 32.09) was 2.10, the Normalized fluo (UreG + compound 50μM, Temperature 32.47) was 1.61 and the Normalized fluo (UreG + compound 50μM, Temperature 32.85) was 1.32. It also gave a Normalized fluo (UreG + compound 50μM, Temperature 33.30) of 0.93, a Normalized fluo (UreG + compound 50μM, Temperature 33.65) of 0.64 and a Normalized fluo (UreG + compound 50μM, Temperature 34.08) of 0.41. The Normalized fluo (UreG + compound 50μM, Temperature 34.47) was 0.19, the Normalized fluo (UreG + compound 50μM, Temperature 34.84) was 0.16 and the Normalized fluo (UreG + compound 50μM, Temperature 35.21) was 0.06. For the same compound, the Normalized fluo (UreG + compound 50μM, Temperature 35.58) was 3.2e-7, the Normalized fluo (UreG + compound 50μM, Temperature 35.96) was 0.09 and the Normalized fluo (UreG + compound 50μM, Temperature 36.34) was 0.11. It also gave a Normalized fluo (UreG + compound 50μM, Temperature 36.71) of 0.29, a Normalized fluo (UreG + compound 50μM, Temperature 37.48) of 0.97 and a Normalized fluo (UreG + compound 50μM, Temperature 37.86) of 1.58. The Normalized fluo (UreG + compound 50μM, Temperature 38.23) was 2.12, the Normalized fluo (UreG + compound 50μM, Temperature 38.61) was 2.84 and the Normalized fluo (UreG + compound 50μM, Temperature 38.99) was 3.60. For the same compound, the Normalized fluo (UreG + compound 50μM, Temperature 39.38) was 4.60, the Normalized fluo (UreG + compound 50μM, Temperature 39.76) was 5.58 and the Normalized fluo (UreG + compound 50μM, Temperature 40.14) was 6.65. The Normalized fluo (UreG + compound 50μM, Temperature 40.52) was 7.99, the Normalized fluo (UreG + compound 50μM, Temperature 40.91) was 9.53 and the Normalized fluo (UreG + compound 50μM, Temperature 41.29) was 11.09. For the same compound, the Normalized fluo (UreG + compound 50μM, Temperature 41.66) was 12.65, the Normalized fluo (UreG + compound 50μM, Temperature 42.04) was 14.59 and the Normalized fluo (UreG + compound 50μM, Temperature 42.42) was 16.59. The Normalized fluo (UreG + compound 50μM, Temperature 42.81) was 18.72, the Normalized fluo (UreG + compound 50μM, Temperature 43.18) was 21.02 and the Normalized fluo (UreG + compound 50μM, Temperature 43.56) was 23.41. It also gave a Normalized fluo (UreG + compound 50μM, Temperature 43.94) of 25.90, a Normalized fluo (UreG + compound 50μM, Temperature 44.33) of 28.66 and a Normalized fluo (UreG + compound 50μM, Temperature 44.71) of 31.01. It also gave a Normalized fluo (UreG + compound 50μM, Temperature 45.09) of 34.36, a Normalized fluo (UreG + compound 50μM, Temperature 45.47) of 37.25 and a Normalized fluo (UreG + compound 50μM, Temperature 45.85) of 40.25. For the same compound, the Normalized fluo (UreG + compound 50μM, Temperature 46.23) was 43.53, the Normalized fluo (UreG + compound 50μM, Temperature 46.60) was 46.72 and the Normalized fluo (UreG + compound 50μM, Temperature 46.99) was 50.00. It also gave a Normalized fluo (UreG + compound 50μM, Temperature 47.37) of 53.25, a Normalized fluo (UreG + compound 50μM, Temperature 47.75) of 56.55 and a Normalized fluo (UreG + compound 50μM, Temperature 48.13) of 59.79. The Normalized fluo (UreG + compound 50μM, Temperature 48.52) was 62.98, the Normalized fluo (UreG + compound 50μM, Temperature 48.89) was 66.11 and the Normalized fluo (UreG + compound 50μM, Temperature 49.28) was 69.46. The Normalized fluo (UreG + compound 50μM, Temperature 49.65) was 72.30, the Normalized fluo (UreG + compound 50μM, Temperature 50.04) was 75.42 and the Normalized fluo (UreG + compound 50μM, Temperature 50.42) was 78.05. The Normalized fluo (UreG + compound 50μM, Temperature 50.80) was 80.94 and the Normalized fluo (UreG + compound 50μM, Temperature 51.19) was 83.37.

Reference: publication PMC5779714, “Metallochaperone UreG serves as a new target for design of urease inhibitor: A novel strategy for development of antimicrobials” (PLoS Biology, 2018)
